Values quoted from earlier work, collected in patent US20190209552A1, “PHARMACEUTICAL COMPOSITION OF [ (3-HYDROXY-4 -PYRON-2-YL) METHYL] -AMINE DERIVATIVES AND DNA DEMETHYLATING AGENTS AND THEIR USE AS ANTI-NEOPLASTIC DRUGS” (UNIVERSITA' DEGLI STUDI DI URBINO "CARLO BO", priority 2016, published 2019).

Assays:
[1] = tested on: Ewing's sarcoma
[2] = tested on: Ewing's sarcoma; remark: listed apart in the source

Compound: CN1CCN(Cc2occc(=O)c2O)CCN(C)CCN(Cc2occc(=O)c2O)CC1 [Maltonis, 4(N), 10(N)-bis [(3-hydroxy-4-Pyron-2-yl)methyl]-1,7-dimethyl-1,4,7,10tetraazacyclododecane]
- efficacy in vitro [1]: effective
- efficacy in vivo [2]: effective
